Data taken from ChEMBL document CHEMBL3745623, “Polyphenols isolated from leaves of Vitis thunbergii var. taiwaniana regulate APP related pathway” (Bioorg Med Chem Lett, 2016).
The source made the active and inactive calls. No cut-off for these calls is given here.

Tests used:
N2a [1] = assay: Effect on BACE1 level in mouse N2A cells expressing human APP695 at 8 uM after 10 hrs by Western blot analysis; type: functional, cell-based
[2] = target: Beta-secretase 1 (Mus musculus) (UniProt P56818); assay: Inhibition of BACE1 in mouse N2A cells at 8 uM after 10 hrs by fluorescence plate reader analysis; type: cell-based
Beta-secretase 1 (Mus musculus), sequence (P56818 whole entry): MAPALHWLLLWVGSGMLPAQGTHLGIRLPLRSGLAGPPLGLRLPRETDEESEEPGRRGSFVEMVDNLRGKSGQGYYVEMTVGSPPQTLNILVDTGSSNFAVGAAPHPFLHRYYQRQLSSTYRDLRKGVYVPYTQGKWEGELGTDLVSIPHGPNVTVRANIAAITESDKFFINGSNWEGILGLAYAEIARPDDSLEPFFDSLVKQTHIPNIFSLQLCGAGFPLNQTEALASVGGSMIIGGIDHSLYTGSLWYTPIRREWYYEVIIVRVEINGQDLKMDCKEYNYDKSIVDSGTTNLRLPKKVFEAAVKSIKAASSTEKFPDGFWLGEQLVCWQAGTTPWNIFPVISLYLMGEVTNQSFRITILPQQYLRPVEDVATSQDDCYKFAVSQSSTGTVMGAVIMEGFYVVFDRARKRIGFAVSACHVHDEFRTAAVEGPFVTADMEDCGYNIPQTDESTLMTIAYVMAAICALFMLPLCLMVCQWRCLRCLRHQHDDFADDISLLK

N2a [3] = assay: Effect on ADAM17 level in mouse N2A cells expressing human APP695 at 8 uM after 10 hrs by Western blot analysis; type: functional, cell-based
[4] = target: Disintegrin and metalloproteinase domain-containing protein 17 (Homo sapiens) (UniProt P78536); assay: Activation of TACE in human SH-SY5Y cells at 8 uM after 10 hrs by fluorescence assay; type: cell-based
Disintegrin and metalloproteinase domain-containing protein 17 (Homo sapiens), sequence (P78536 whole entry, the tested form may be a part): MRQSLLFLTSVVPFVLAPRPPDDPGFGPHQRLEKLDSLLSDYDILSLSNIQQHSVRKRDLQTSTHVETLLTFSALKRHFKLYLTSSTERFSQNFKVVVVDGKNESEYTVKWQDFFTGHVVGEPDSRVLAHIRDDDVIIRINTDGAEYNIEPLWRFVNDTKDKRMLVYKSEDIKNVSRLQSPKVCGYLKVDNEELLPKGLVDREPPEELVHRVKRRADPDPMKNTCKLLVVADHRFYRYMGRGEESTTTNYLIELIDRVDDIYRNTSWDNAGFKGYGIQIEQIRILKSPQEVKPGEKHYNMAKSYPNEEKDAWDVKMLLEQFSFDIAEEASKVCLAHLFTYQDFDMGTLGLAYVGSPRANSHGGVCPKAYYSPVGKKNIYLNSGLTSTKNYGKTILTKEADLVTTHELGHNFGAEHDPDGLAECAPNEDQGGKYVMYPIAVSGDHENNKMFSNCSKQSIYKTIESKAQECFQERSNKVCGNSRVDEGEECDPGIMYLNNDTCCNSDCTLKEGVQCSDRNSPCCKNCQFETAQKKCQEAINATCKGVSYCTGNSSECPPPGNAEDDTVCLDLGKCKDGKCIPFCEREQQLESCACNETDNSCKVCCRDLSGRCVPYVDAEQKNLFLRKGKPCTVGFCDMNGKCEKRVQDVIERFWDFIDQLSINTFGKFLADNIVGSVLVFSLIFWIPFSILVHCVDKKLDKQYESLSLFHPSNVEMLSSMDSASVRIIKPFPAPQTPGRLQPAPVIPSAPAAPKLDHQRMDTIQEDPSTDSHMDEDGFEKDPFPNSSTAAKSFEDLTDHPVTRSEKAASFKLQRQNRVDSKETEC

N2a [5] = assay: Effect on full length APP level in mouse N2A cells expressing human APP695 at 8 uM after 10 hrs by Western blot analysis; type: functional, cell-based
N2a [6] = assay: Upregulation of soluble APP alpha protein level in mouse N2A cells expressing human APP695 at 8 uM after 10 hrs by Western blot analysis; type: functional, cell-based
N2a [7] = assay: Decrease in amyloid beta40 level in mouse N2A cells expressing human APP695 at 10 uM after 10 hrs by sandwich ELISA; type: functional, cell-based
[8] = target: Beta-secretase 1 (Mus musculus) (UniProt P56818); assay: Inhibition of BACE1 in mouse N2A cells expressing human APP695 assessed as decrease in soluble APP beta protein level at 8 uM after 10 hrs by Western blot analysis; type: cell-based
N2a [9] = assay: Decrease in amyloid beta40 level in mouse N2A cells expressing human APP695 after 10 hrs by sandwich ELISA; type: functional, cell-based
N2a [10] = assay: Cytotoxicity against mouse N2A cells expressing human APP695 assessed as reduction in cell viability at 8 to 100 uM after 10 hrs by CCK-8 assay; type: cell-based
[11] = target: Beta-secretase 1 (Homo sapiens) (UniProt P56817); assay: Inhibition of BACE1 in human SH-SY5Y cells at 8 uM after 10 hrs by fluorescence plate reader analysis; type: cell-based
Beta-secretase 1 (Homo sapiens), sequence (P56817 whole entry, the tested form may be a part): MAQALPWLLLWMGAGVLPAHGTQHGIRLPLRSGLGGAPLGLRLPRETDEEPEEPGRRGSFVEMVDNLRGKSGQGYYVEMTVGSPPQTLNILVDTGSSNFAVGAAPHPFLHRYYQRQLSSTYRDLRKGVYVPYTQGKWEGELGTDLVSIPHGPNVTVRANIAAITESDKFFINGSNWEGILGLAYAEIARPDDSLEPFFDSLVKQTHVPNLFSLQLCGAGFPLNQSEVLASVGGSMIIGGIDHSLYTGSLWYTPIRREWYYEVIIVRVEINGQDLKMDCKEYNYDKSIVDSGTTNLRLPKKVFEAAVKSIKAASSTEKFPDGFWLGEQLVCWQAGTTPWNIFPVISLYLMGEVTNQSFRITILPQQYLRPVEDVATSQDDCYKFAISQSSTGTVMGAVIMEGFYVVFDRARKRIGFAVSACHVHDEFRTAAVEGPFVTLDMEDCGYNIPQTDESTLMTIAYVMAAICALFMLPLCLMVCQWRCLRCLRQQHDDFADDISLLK

N2a [12] = assay: Downregulation of N-terminal fragment of presenilin1 level in mouse N2A cells at 8 uM after 10 hrs by Western blot analysis; type: functional, cell-based
N2a [13] = assay: Inhibition of gamma-secretase in mouse N2A cells transfected with NotchdeltaE assessed as reduction in Notch intracellular domain level at 8 uM after 10 hrs by densitometry analysis; type: cell-based
N2a [14] = assay: Cytotoxicity against mouse N2A cells expressing human APP695 assessed as reduction in cell viability up to 8 uM after 10 hrs by CCK-8 assay; type: cell-based
N2a [15] = assay: Effect on immature ADAM10 level in mouse N2A cells expressing human APP695 at 8 uM after 10 hrs by Western blot analysis; type: functional, cell-based
N2a [16] = assay: Decrease in amyloid beta42 level in mouse N2A cells expressing human APP695 after 10 hrs by sandwich ELISA; type: functional, cell-based
N2a [17] = assay: Effect on mature ADAM10 level in mouse N2A cells expressing human APP695 at 8 uM after 10 hrs by Western blot analysis; type: functional, cell-based
[18] = target: Beta-secretase 1 (Mus musculus) (UniProt P56818); assay: Inhibition of BACE1 in mouse N2A cells expressing human APP695 assessed as reduction in amyloid beta40 level after 10 hrs by sandwich ELISA; type: cell-based
[19] = target: Beta-secretase 1 (Mus musculus) (UniProt P56818); assay: Inhibition of BACE1 in mouse N2A cells expressing human APP695 assessed as reduction in amyloid beta42 level after 10 hrs by sandwich ELISA; type: cell-based
[20] = target: Beta-secretase 1 (Mus musculus) (UniProt P56818); assay: Inhibition of BACE1 in mouse N2A cells expressing human APP695 assessed as reduction in amyloid beta40 level at 10 uM after 10 hrs by sandwich ELISA; type: cell-based
N2a [21] = assay: Cytotoxicity against mouse N2A cells expressing human APP695 assessed as reduction in cell viability up to 16 uM after 10 hrs by CCK-8 assay; type: cell-based
N2a [22] = assay: Cytotoxicity against mouse N2A cells expressing human APP695 assessed as reduction in cell viability at 16 to 100 uM after 10 hrs by CCK-8 assay; type: cell-based
N2a [23] = assay: Upregulation of soluble APP alpha protein level in mouse N2A cells expressing human APP695 at 10 uM after 10 hrs by Western blot analysis; type: functional, cell-based

| Structure (SMILES) | Activity (N2a [1]) | inhibition [2] | Activity (N2a [3]) | Activity [4] | Activity (N2a [5]) | Activity (N2a [6]) | Activity (N2a [7]) | inhibition [8] | Activity (N2a [9]) | Activity (N2a [10]) | inhibition [11] | Activity (N2a [12]) | inhibition (N2a [13]) | Activity (N2a [14]) | Activity (N2a [15]) | Activity (N2a [16]) | Activity (N2a [17]) | also measured |
| --- | --- | --- | --- | --- | --- | --- | --- | --- | --- | --- | --- | --- | --- | --- | --- | --- | --- | --- |
| Oc1ccc([C@H]2c3c(O)cc(O)cc3[C@H]3c4c(cc(O)cc4[C@H]4[C@H](c5ccc(O)cc5)c5cc(O)cc(O)c5[C@H]24)O[C@@H]3c2ccc(O)cc2)cc1 | inactive | inactive | inactive | Active | inactive | Active | Active | inactive | Dose-dependent effect | Dose-dependent effect | Active | inactive | inactive | Non-toxic | inactive | Dose-dependent effect | inactive | – |
| Oc1ccc([C@@H]2c3c(O)cc4c5c3[C@@H]([C@@H](c3ccc(O)cc3)c3c(O)cc(O)cc3[C@@H]5[C@@H](c3ccc(O)cc3)O4)[C@H]2c2cc(O)cc(O)c2)cc1 [AMPELOPSIN C] | inactive | Active | inactive | inactive | inactive | Active | – | Active | – | Dose-dependent effect | Active | inactive | inactive | Non-toxic | inactive | – | inactive | inhibition [18]: Dose-dependent effect; inhibition [19]: Dose-dependent effect; inhibition [20]: Active |
| Oc1ccc([C@@H]2c3c(O)cc(O)cc3[C@@H]3c4c(cc(O)c5c4[C@H]2[C@@H](c2cc(O)cc(O)c2)[C@@H]5c2ccc(O)cc2)O[C@H]3c2ccc(O)cc2)cc1 | inactive | Active | inactive | inactive | inactive | Active | Active | inactive | Dose-dependent effect | – | Active | inactive | inactive | – | inactive | Dose-dependent effect | inactive | Activity (N2a [21]): Non-toxic; Activity (N2a [22]): Dose-dependent effect |
| C[C@@H](NC(=O)c1cc(C(=O)N[C@@H](Cc2ccccc2)[C@H](O)CNC2CC2)cc(N(C)S(C)(=O)=O)c1)c1ccccc1 | – | – | – | – | – | – | – | – | – | – | – | – | – | – | – | – | – | Activity (N2a [23]): Active |
